Source: US20200206349A1, “Immunothermosensitive Composite, Kit For Treating Cancer, And Use Thereof” (National Tsing Hua University, priority 2018, published 2020)

Legend:
CT26 cells = test: Cytotoxicity, CellTiter-Glo cell viability assay; format: cell-based, murine; details: 0.625 μg/mL to 10 μg/mL, 24 hours
Description: The experiment further includes untreated CT26 cells, the CT26 cells treated with free R848 or the CT26 cells treated with the carrier PANI-GCS as a control. […] The CT26 cells are seeded in 96-well plates at 1×10^4 cells/well for 24 hours. […] The viability of the CT26 cells is evaluated by the CellTiter-Glo® Luminescent Cell Viability Assay kit (Promega, Madison, Wis., USA).

BMDCs = test: Proinflammatory cytokines secreted by BMDCs (bead arrays); format: cell-based, Balb/c mice
Description: The dendritic cells used in the experiment are dendritic cells differentiated from bone marrow cells (BMDC). […] After 10 days, suspended immature BMDCs are collected for further experiments. […] The cellular uptake of the f-PANI-GCS-R848 by the BMDCs is measured by flow cytometry and immunofluorescence staining. The experiment further includes the BMDCs treated with medium only as a control. Flow cytometry is performed to measure the cell uptake of f-PANI-GCS-R848 by BD Accuri™ C6 flow cytometer (BD Biosciences, San Jose, Calif., USA), and data are analyzed using FlowJo (Treestar, Ashland, Oreg., USA). In immunofluorescence staining, LysoTracker is used as a cell marker for endosome. The BMDCs are incubated with LysoTracker™ Red DND-99 (Thermo Fischer Scientific) containing medium for 2 hours, washed, and stained with 4′,6-diamidino-2-phenylindole (DAPI) in PBS for 10 minutes. Finally, the BMDCs are observed and imaged under a confocal laser scanning microscopy (CLSM, LSM 780, Carl Zeiss, Jena, Germany). […] The BMDCs and the culture supernatants are then collected separately. The expression of mature dendritic cell markers CD80 and CD86 in the treated BMDCs are analyzed by flow cytometry, and the concentrations of inflammatory cytokines secreted by mature dendritic cells in the supernatant are measured by […] beads arrays (CBA, BD Bioscience). The experiment further includes the BMDCs treated with medium only as negative controls (represented as “PBS”). The flow cytometry includes follow steps. The BMDCs are incubated with APC-conjugated anti-mouse CD80 antibody (eBioscience) or FITC-conjugated anti-mouse CD86 Antibody (eBioscience), and then analyzed by BD Accuri™ C6 flow cytometer.

CT26 primary tumor = test: Animal treatment test: primary tumor size and survival; format: in vivo, Balb/c mice; details: without NIR; treated day 14, 21, 28
Description: Experimental animals used in the experiments are Balb/c mice (6-8 weeks old), which are purchased from BioLASCO Taiwan Co., Ltd. (Taipei, Taiwan). All the animal experiments are performed according to “Guide for the Care and Use of Laboratory Animals” developed by the Institute of Laboratory Animal Resources, National Research Council. Balb/c mice are inoculated with 1×10^6 CT26 cells subcutaneously on their right flanks (primary tumor). Fourteen days later when the tumor diameter is about 5 mm (or the tumor volumes reach 150-200 mm^3), the Balb/c tumor mice are established and further used to test the cancer treatment effects on the immunothermosensitive composition and the kit for treating cancer of the present disclosure, and whether the immunothermosensitive composition and the kit for treating cancer of the present disclosure can achieve the dual effects of hyperthermia therapy and immunotherapy.
Further, the cancer treatment effects on the immunothermosensitive composition and the kit for treating cancer of the present disclosure is confirmed in the experiment. […] The size of each primary tumor, which is estimated as length×width×height×π/6, is assessed using a pair of caliper every 2-3 days. […] The Balb/c tumor mice with the rechallenged tumor are no longer treated, but the size of each rechallenged tumor is observed and recorded. […]

[1] = at 24 hours, 5 μg/mL free R848, 50 μg/mL PANI-GCS-R848
[2] = at 48 hours and 72 hours (after 24 hours)

For `CCOCc1nc2c(N)nc3ccccc3c2n1CC(C)(C)O` [R848, resiquimod], the “cytotoxicity (cell viability)” value (CT26 cells) was “not significantly cytotoxic”, the IL-6 secretion (BMDCs; [1]) was “notable levels” and the TNF-α secretion (BMDCs; [1]) was “notable levels”. The IL-6 secretion (BMDCs; [2]) was “do not change significantly”, the TNF-α secretion (BMDCs; [2]) was “do not change significantly” and the “growth of the primary tumor” value (CT26 primary tumor) was “slightly delayed”.
